Consider one molecule from patent publication US12351587B2, “Bicyclic compound as RIP-1 kinase inhibitor and application thereof” (MEDSHINE DISCOVERY INC., priority 2019, dated 2025).

The nature of data set [1]: Pharmacokinetic parameters in dogs. It is filed as in vivo. Particulars: beagle, plasma, dog. The protocol:
Four healthy adult beagle dogs were selected and randomly divided into two groups. One group was given the assay compound by intravenous injection, and the other group was given the assay compound by gavage. Plasma samples were collected respectively from animals in the intravenous group and gavage group at 0.083, 0.25, 0.5, 1.0, 2.0, 4.0, 6.0, 8.0, 24 hours after administration. The blood concentration was determined by LC-MS/MS method. Relevant pharmacokinetic parameters were calculated by WinNonlin™ Version 6.3 (Pharsight. Mountain View, CA) pharmacokinetic software using non-compartmental model and linear logarithmic trapezoidal method. AUC0-last represents the area under the plasma concentration-time curve from zero time point to the last detectable concentration time point; Cmax represents the peak concentration; Tmax represents the time to reach the peak; T1/2 represents the half-life; CL represents the clearance rate; Vdss represents apparent volume of distribution; p.o. represents per os; i.v. represents intravenous injection; and F % represents oral bioavailability.

In another data set the target is T1, LIMK2 (Homo sapiens, UniProt P53671).
T1 construct: purchased Eurofins Pharma Discovery Service
T1 sequence (P53671 whole entry, species assumed): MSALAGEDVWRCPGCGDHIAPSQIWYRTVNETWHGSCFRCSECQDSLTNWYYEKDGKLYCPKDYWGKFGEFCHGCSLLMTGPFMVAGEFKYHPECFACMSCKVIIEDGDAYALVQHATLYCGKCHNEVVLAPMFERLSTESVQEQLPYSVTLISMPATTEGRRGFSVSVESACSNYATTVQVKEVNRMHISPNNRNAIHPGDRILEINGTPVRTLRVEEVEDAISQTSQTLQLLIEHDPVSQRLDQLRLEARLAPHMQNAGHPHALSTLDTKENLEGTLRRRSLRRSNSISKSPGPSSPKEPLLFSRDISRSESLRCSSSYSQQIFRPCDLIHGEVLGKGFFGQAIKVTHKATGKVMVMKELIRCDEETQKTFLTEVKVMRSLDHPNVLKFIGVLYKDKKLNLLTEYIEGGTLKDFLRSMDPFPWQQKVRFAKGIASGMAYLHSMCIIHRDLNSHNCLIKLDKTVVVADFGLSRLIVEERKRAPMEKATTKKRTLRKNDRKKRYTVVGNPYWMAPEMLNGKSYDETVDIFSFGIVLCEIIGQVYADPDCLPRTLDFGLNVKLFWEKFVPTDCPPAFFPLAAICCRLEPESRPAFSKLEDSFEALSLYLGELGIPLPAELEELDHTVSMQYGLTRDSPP
As to the kind of experiment: Kinase selectivity assay (Eurofins, 33P radiolabeled kinase activity): LIMK2. The class given is biochemical. Particulars: WX009 1 μM, ATP 10 μM, read-out: Inhibition rate. On the procedure:
The purpose of this assay was to detect the in vitro inhibitory activity of WX009 on a variety of kinases. The kinases used in this assay included 413 kinases, and the activity detection method was provided by Eurofins Pharma Discovery Service A method of detecting ^33P radiolabeled kinase activity was used for the assay. The concentration of WX009 was 1 μM, and the concentration of ATP was 10 μM.

For a further data set, the system named is U937 cells. As to the kind of experiment: U937 cell activity assay: TNFα/QVD-OPh-induced programmed cell necrosis (necroptosis). The class given is cell-based, human. Particulars: Homo sapiens, U-937, 24 h, QVD-OPh 25 μM + TNF-α 100 ng/mL, CellTiter Glo. On the procedure:
1.2 Instrument and Materials
Envision plate reader (Perkin Elmer, Cat #2104-0010)
1.3 Formulation of Reagents • (1) 1×DPSB: To 100 mL of 10×DPBS was added 900 mL of deionized water. • (2) 1640 complete medium: To 89 mL of RPMI-1640 medium were added 10 mL of FBS and 1 mL of penicillin/streptomycin 2. Assay Steps • 1. U937 cells were centrifuged, and then the medium was discarded. The cells were resuspended in 1640 complete medium and counted. The cell concentration was adjusted to 5×10^5 cells/mL for use, and the cells were arranged according to compounds to be assayed. • 2. To the prepared resuspension of U937 cells were added QVD-OPh at a final concentration of 25 μM and TNF-α at a final concentration of 100 ng/mL, and then the mixture was mixed gently. • 3. To a 384-well plate was added 30 μL/well of U937 cells containing 25 μM of QVD-OPh and TNF-α at a final concentration of 100 ng/mL, and blank control wells without QVD-OPh and TNF-α were set up. • 4. To the dosing group […] added 10 μL of the assay compound at 4 times the preset concentration, and to the blank control well was added DMSO at the corresponding concentration. • 5. The 384-well plate was placed in a 37° C. and 5% CO2 cell incubator for 24 hours. • 6. After 24 hours, the 384-well plate was taken out and equilibrated at room temperature for 20 minutes. • 7. 40 μL of CTG was added to each well, and then the plate was shaken on a shaker in the dark for 2 minutes. • 8. The plate was incubated at room temperature in the dark for 10 minutes, and then read using an Envision plate reader.
For orientation: ATP-based viability assays read luminescence as a measure of living cells.

In another data set the test system is L929 cells. Briefly: In vitro activity assay of mouse RIP1: L929 cell TNFα/QVD-OPh-induced necroptosis. It is filed as cell-based. Particulars: TNF-α 50 ng/mL + Q-VD 50 μM, 24 h, CellTiter Glo. The protocol: Assay Example 2: In Vitro Activity Assay of Mouse RIP1
L929 (purchased from ATCC, Item No.: CCL-1)
Instrument Microplate reader (Perkin Elmer, Envision) Formulation of Reagents L929 cell complete medium: EMEM+10% horse serum (volume ratio)+1% double antibiotics (volume ratio) Assay Step • 1. The cultured L929 cells were digested with trypsin, centrifuged, resuspended in complete culture medium, and then counted. The cell concentration was then diluted to 1×10^5/mL with complete culture medium. • 2. The cell suspension was added to a 96-well plate at 100 μL per well and incubated at 37° C. and 5% CO2 for 24 h. • 3. Different concentrations of assay compounds were added to each well, and dimethyl sulfoxide was added to the control group. The plate was incubated at 37° C. and 5% CO2 for 1 h. • 4. To each well were added TNF-α at a final concentration of 50 ng/mL and Q-VD at a final concentration of 50 μM, and the plate was incubated at 37° C. and 5% CO2 for 24 h. • 5. To each well was added 50 μL of CellTiter Glo […], and the plate was shaken in the dark for 10 min. • 6. The plate was read on the microplate reader.

Molecules are shown by their SMILES.

The term AUC(0-t) denotes the area under the concentration-time curve up to a stated or last time point. Low readings indicate less exposure, high ones more exposure. One may read the clearance as the rate of elimination divided by the concentration. By half-life is commonly meant the time in which the quantity being followed falls by half. Higher therefore signals slow decline. As usually defined, the Cmax is the highest concentration seen after dosing. As a reminder, the Tmax is the time at which the peak concentration occurs. One may read the bioavailability as the share of a dose that reaches the circulation, judged against a reference dose that is usually intravenous. A low value points to little systemic uptake. As usually defined, the inhibition is the percentage by which the read-out fell short of the control. One may read the IC50 as the concentration needed to halve the response being measured. Take `CN1C(=S)[C@@H](NC(=O)c2ncn(Cc3ccccc3)n2)COc2cccnc21` [WX009]: in data set [1] (3 mg/kg, iv = 3 mpk), the AUC(0-t) amounted to 20.8 µM·h, the clearance was determined as 6.2 mL/min/kg and the half-life is 5.5 h. Further, in data set [1] (3 mg/kg, iv = 3 mpk, read-out: Vdss), the Vd stood at 2.4 L/kg. Moreover, in data set [1] (10 mg/kg, po = 10 mpk), the area under the curve AUC(0-t) amounted to 23.6 µM·h, the Cmax turned out to be 284 nM and the Tmax came to 2 h. The molecule also had a bioavailability in data set [1] (po = 10 mpk vs iv = 3 mpk) of 34.2%. Also, the inhibition at 1 µM on LIMK2 was in the range of 50 to 79%. For the same molecule, the IC50 with U937 cells turned out to be 1.4 nM. Further, in the data set with L929 cells, the IC50 came out at 0.103 µM.
